Laboratory results published in PMC11770272, “Surface immobilization of single atoms on heteroatom-doped carbon nanospheres through phenolic-mediated interfacial anchoring for highly efficient biocatalysis” (Chemical Science, 2025).

Tested on: T1, natural horseradish peroxidase (HRP)
T1 construct: gene PRXC1A
Test: steady-state kinetics, absorbance of oxidized TMB at […] nm
Type: biochemical, Armoracia rusticana
Details: H2O2 as co-substrate, HAc-NaAc buffer pH 3.6, 37 °C

`Cc1cc(-c2cc(C)c(N)c(C)c2)cc(C)c1N` [TMB] was tested. Which Km did it give?
The Km was 1650 µM.
